pIC50: −log10 of the molar value.
Test system: Mycobacterium tuberculosis H37Rv growth inhibition, no glycerol
Assay: Confirmatory growth inhibition assay, Mycobacterium tuberculosis H37Rv, absence of glycerol (AID 449764);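 also: growth read after 7 days of incubation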
Settings: for IC90: measured here: IC90 growth inhibition

SMILES | pIC50 | IC90
NCCCn1c(C(=O)c2ccc(Cl)cc2)c2ccc([N+](=O)[O-])cc2[n+]1[O-] | 4.47 | 44.2 µM
COc1cccc(NC(=O)CNC(=O)Cn2cnc3sc4c(c3c2=O)CCCC4)c1 | 4.18 | > 100 µM
CCOC(=O)c1ccc(NC(=O)Cn2ncc(Cl)c(Cl)c2=O)cc1 | > 6.70 | 2.19 µM
CC[C@H](C)[C@@H]1O[C@@]2(C=CC1C)CC1C[C@@H](CC=C(C)C(O[C@H]3CC(OC)C(O[C@H]4CC(OC)C(O)C(C)O4)C(C)O3)C(C)C=CC=C3CO[C@@H]4C(O)C(C)=C[C@@H](C(=O)O1)[C@]34O)O2 (stereo partly specified) | 4.78 | 27.3 µM
CC(C)C(=O)N1CCC2(CC1)Oc1ccc(Cl)cc1C(=O)C21CC(c2ccccc2)=NO1 (stereo unspecified) | 4.23 | > 100 µM
COC(=O)CSc1nnc(-c2sc3cc(OC)ccc3c2Cl)n1C | 4.45 | > 50 µM
Cc1ccc(N(CCC#N)C(=O)CCl)cc1C | 5.29 | 8.42 µM
CN1/C(=C\C(=O)C[n+]2ccc(C(=O)c3ccccc3)cc2)C(C)(C)c2ccccc21 | 4.88 | 21.1 µM
Cc1c(Cl)cccc1NC(=O)CN1CCC(C(O)(c2ccccc2)c2ccccc2)CC1 | 4.35 | > 100 µM
O=C(Nc1cc(C(F)(F)F)ccc1Cl)C(Sc1cccc[n+]1[O-])c1ccccc1 (stereo unspecified) | 4.36 | 48.2 µM
COc1cc(N=Nc2ccc3ccccc3c2)ccc1O | 4.40 | 59.1 µM
CCCCCCCCCCCCCCCC[N+](C)(C)CC | 4.44 | 48.4 µM
CCCCCC(=O)N/N=C(\C)c1ccccn1 | 4.54 | 38.9 µM
CCOC(=O)N1CCc2c(sc(NC(=O)c3ccc(Cl)s3)c2C(N)=O)C1 | 5.16 | 19.1 µM
Cc1ccc(C2CC(c3cccs3)=NN2C(=O)CCl)cc1 (stereo unspecified) | 5.85 | 1.77 µM
O=C1c2cccc3c([N+](=O)[O-])ccc(c23)C(=O)N1O | 4.93 | 13.5 µM
CCOC(=O)COc1ccc(C2CC(C)=NN2c2ccccc2)cc1 (stereo unspecified) | 5.09 | 12.9 µM
FC(F)(F)c1ccc(Nc2nnnc3ccccc23)cc1 | 4.31 | 55.3 µM
O=C(NC(=S)N1CCc2ccccc21)c1ccc(Br)o1 | 4.98 | 15.5 µM
O=C1C=C(c2ccc3[nH]ccc3c2)C[C@@H](c2ccc(Cl)cc2)C1 | 4.07 | > 100 µM
COc1cc(/C=C/c2cc[n+](C)cc2)ccc1OCC(=O)Nc1ccc(Cl)c(Cl)c1 | 4.60 | 28 µM
CC(=O)C1=C(C)NC(SCC(=O)c2ccc(F)cc2)=C(C#N)C1c1ccco1 (stereo unspecified) | 4.49 | 49.8 µM

SMILES | pIC50 | IC90
COc1cc(N)c(Cl)cc1C(=O)N[C@H]1CCN(CCCOc2ccc(F)cc2)C[C@H]1OC | 4.31 | 89 µM
Cc1ccc(C)c(NNC(N)=S)c1 | 4.80 | 29.2 µM
COc1ccc(C(=O)C2CCCN(C3CSCCSC3)C2)c(C)c1 (stereo unspecified) | 4.48 | 44.9 µM
CCOC(=O)Oc1c(OC)cc(C(=O)O[C@@H]2C[C@@H]3CN4CCc5c([nH]c6cc(OC)ccc56)[C@H]4C[C@@H]3[C@H](C(=O)OC)[C@H]2OC)cc1OC | 4.58 | 39.1 µM
COc1ccccc1OCCN1CSC(=S)N(C)C1 | 4.75 | 23.9 µM
CCOC(=O)c1c(NC(=O)CCl)sc(CN(C)C)c1-c1ccccc1 | 5.52 | 10.7 µM
O=C(CCl)NCCCCCCCCCNC(=O)CCl | > 6.70 | > 100 µM
CN1CCN(Cn2cc(/C=C/C(=O)c3ccccc3)c3ccccc32)CC1 | 4.70 | 39.3 µM
Cc1cc(C)cc(NC(=O)c2ccc(Cn3nc(C)c(Cl)c3C)o2)c1 | 4.46 | 48.3 µM
CCOC(=O)CSc1snnc1-c1ccccc1 | 4.53 | > 100 µM
CC(C)c1ccc2c(c1)CCC1C(C)(CN)CCCC21C (stereo unspecified) | 4.75 | 26.7 µM
CC(C)(C)c1cc(-c2nc(N)nc(N)n2)c(O)c(C(C)(C)C)c1 | 4.04 | 96 µM
Cc1cc(C)n2nc(N)c(N=Nc3ccccc3)c2n1 | 5.59 | 3.46 µM
CC(OC(=O)COc1ccc(Nc2ccccc2)cc1)C(=O)N(C)c1ccccc1 (stereo unspecified) | 5.67 | 10.9 µM
CCOC(=O)CCCc1ccc(/C(C)=N/NC(N)=S)cc1 | 5.08 | 25 µM
Cc1[nH]c2ccccc2c1/C=N/Nc1nc(Nc2ccccc2)nc(N2CCOCC2)n1 | 5.18 | 13.6 µM
O=C(CCc1ccc(Oc2cc([N+](=O)[O-])cc([N+](=O)[O-])c2)cc1)N1CCCCCC1 | 4.83 | 22.9 µM
Cc1ccc(NC(=O)c2sccc2-n2cccc2)c(C)c1 |  | > 100 µM
COc1cccc(NC(=S)/C(=C(\[O-])c2cc(C)n(-c3ccccc3F)c2C)[n+]2ccc(N(C)C)cc2)c1 | 4.15 | 90.3 µM
c1ccc(-c2cn3c(n2)CCc2ccc4cccnc4c2-3)cc1 | 4.65 | 25.4 µM
COc1ccc(CN2CCN(C(c3ccc(F)cc3)c3ccc(F)cc3)CC2)c(OC)c1OC | 4.64 | 40.5 µM
CCOC(=O)Cn1c(-c2ccccc2)ccc(C#N)c1=O | 4.98 | > 50 µM

SMILES | pIC50 | IC90
CON(C)c1nc(C2CCCCC2)c2cc(C)ccc2n1 | 4.24 | 68.2 µM
COc1ccc2cc1Oc1ccc(cc1)C[C@H]1c3c(cc(OC)c4c3Oc3c(ccc5c3[C@H](C2)N(C)CC5)O4)CCN1C | 5.26 | 6.24 µM
COC(=O)/C(=C1/Oc2cc(C)oc(=O)c2S1)C(F)(F)F | 4.58 | > 100 µM
CNC(CC(C)C)C(=O)NC1C(=O)NC(CC(N)=O)C(=O)NC2C(=O)NC3C(=O)NC(C(=O)NC(C(=O)O)c4cc(O)cc(O)c4-c4cc3ccc4O)C(O)c3ccc(c(Cl)c3)Oc3cc2cc(c3OC2OC(CO)C(O)C(O)C2OC2C[C@](C)(N)C(O)C(C)O2)Oc2ccc(cc2Cl)C1O (stereo partly specified) | 5.34 | 16.9 µM
C=C1CCC[C@]2(C)C[C@H]3OC(=O)C(CNC(C)CCCC(C)C)[C@H]3CC12 (stereo partly specified) | 4.63 | 26.2 µM
CC(Oc1ccc(F)cc1)C(=O)Nc1sc2c(c1C(=O)NCc1cccnc1)CCCC2 (stereo unspecified) | 4.36 | 86 µM
O=C(NNC(=O)C12CC3CC(CC(C3)C1)C2)c1ccccn1 | 4.66 | 24.4 µM
Cc1nn(-c2ccccc2)c(C)c1/C=N/NC(=O)c1cc(-c2cccc3ccccc23)n[nH]1 | 4.32 | > 100 µM
c1ccc2sc(Sc3ncnc4sccc34)nc2c1 | 4.94 | 12.9 µM
CN(CC(=O)Nc1ccc(F)c(F)c1F)c1cnccn1 | 5.01 | 13.4 µM
N/C(=N\NC(=O)c1sccc1OCc1ccc(Cl)cc1Cl)c1ccccn1 | 4.49 | 39.4 µM
Cc1[nH]n(S(=O)(=O)Cc2ccccc2)c(=O)c1N=Nc1ccccc1Cl | 4.74 | 28.7 µM
CCCCCCOC(=O)C(C#N)c1nc2ccccc2nc1N1CCN(CC)CC1 (stereo unspecified) | 4.67 | 32.3 µM
O=C(Nc1ccc(OCC(F)(F)C(F)F)c(C(F)(F)F)c1)c1ccc(Cl)cc1 | 4.48 | 46.9 µM
Cc1ccccc1Nc1nc(N)nc(COC(=O)c2ccc([N+](=O)[O-])o2)n1 | 4.05 | > 100 µM
S=C1SCN(Cc2ccco2)CN1Cc1ccco1 | 4.37 | 54.2 µM
Cc1ccc(C2C3=C(CC(C)(C)CC3=O)N=C3c4ccccc4C(=O)C32)cc1 (stereo unspecified) | 4.20 | 87.5 µM
CC(C)(C)C(=O)NC(=S)NNC(=O)c1sc2ccccc2c1Cl | 4.36 | > 100 µM
Cc1csc(NC(=S)Nc2cccc(Cl)c2)n1 | 5.35 | 6.91 µM
C=CCS/C(N)=N\N=C\c1c(O)ccc2ccccc12 | 4.45 | 55.4 µM
CCC(=O)Nc1nc2ccccc2n1Cc1ccc(Cl)cc1 | > 6.70 | 4.27 µM
CN(C(=O)c1cccc(Nc2ccc(-c3ccc4c(c3)OCCO4)nn2)c1)C1CCCCC1 | 4.16 | > 100 µM

SMILES | pIC50 | IC90
CC(C)(C)c1ccc(Cn2nnc3c(=O)[nH]c(C4CCCN(C(=O)Cc5cccs5)C4)nc32)cc1 (stereo unspecified) | 4.44 | 46.6 µM
Cc1nc(NCCc2ccccc2)c2oc3ccccc3c2n1 | 5.14 | 13.3 µM
Cc1c(OCc2ccccc2)c(=O)ccn1Cc1ccc(Cl)cc1 | 4.24 | 95.9 µM
CCCCCCCNC1=CC(=O)CC(c2ccccc2)C1 (stereo unspecified) | 4.40 | 61.3 µM
CCCCNC(=S)N(C)/N=C/c1ccc2c(c1)OCO2 | 4.93 | 21.6 µM
Cc1ccc(NC(=O)COc2ccccc2CNC(C)(C)CC(C)(C)C)cc1 | 4.61 | 36.2 µM
COc1ccc(-c2csc3nc(-c4ccccc4OC)oc(=O)c23)cc1 | 5.26 | 22.1 µM
COc1ccc(N2C(=O)C(Cl)=C(Nc3ccccc3O)C2=O)cc1 | 4.73 | 24.8 µM
Brc1ccc(N/N=C(/N=Nc2nn[nH]n2)c2ccccc2)cc1 | 4.84 | 23.3 µM
Cc1cccc(C2=N/C(=C\c3cccs3)C(=O)O2)c1 | 5.12 | > 100 µM
CCOC(=O)COc1ccc2c(c1)C(=O)CC(C)(c1cccnc1)O2 (stereo unspecified) | 4.87 | 32.5 µM
CC(C)C1N=C(c2ccc3c(c2)OCO3)CC(c2ccccc2O)N1 (stereo unspecified) | 4.35 | 50.9 µM
CCCCOC(=O)NS(=O)(=O)c1sc(CC(C)C)cc1-c1ccc(Cn2c(CC)nc3c(C)cc(C)nc32)cc1 | 4.51 | 47.2 µM
Nc1c(-c2ccccn2)cnn1-c1nc(-c2ccc(F)cc2)cs1 | 4.22 | > 100 µM
OC(CNCC(c1ccc(Cl)cc1Cl)c1c[nH]c2ccccc12)c1ccccc1 (stereo unspecified) | 4.64 | 26.2 µM
NC(=O)N=Nc1c2[nH]c3ccccc3nc-2c2ccccc12 | 5.22 | 8.44 µM
COc1ccc(N2CCN(C(=O)c3cc4c(C)nc5ccccc5c4o3)CC2)cc1 | 4.09 | > 100 µM
N[C@@H](CCl)C(=O)O | 4.45 | 55.2 µM
CCOC(=O)CSc1nc(C)c(C(=O)OCC)s1 | 5.04 | 16.2 µM
CN1C(=O)N(C)c2ccc(C=O)c3cccc1c23 | 4.34 | 51.4 µM

— PubChem BioAssay AID449764 (Southern Research Specialized Biocontainment Screening …, 2010)
